Literature values, collected in patent EP1179349B1, “W/O emulsion adjuvant compositions for vaccines” (Lohmann Animal Health GmbH & Co. KG, priority 2000, dated 2002).

Conditions: manufacturer's data

SMILES: CCCCCCCCCCCCCC(=O)OC(C)C [Isopropylmyristat]
- Toxizität: Keine toxische Wirkung nachweisbar.
